Source: PubChem BioAssay AID1919002 (Molecular Pharmacology Branch, DTP, NCI, 2023)
Several values for one entry are separate records, joined by “and”; a condition that tells them apart may be missing. Equal values may be shown once.

Tested on: 743489-274-T-PDC complex spheroid growth
Assay: Anticancer human tumor 743489-274-T-PDC patient-derived renal cell carcinoma cell line growth inhibition [AhR]
Conditions: for viability, T/C: stronger effect = lower value
Procedure, shortened: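 Complex tumor spheroids co-cultured with HUVEC and human MSC stroma; AhR antagonists tested in combination with standard-of-care and investigational agents. Top concentration at or near clinical Cmax (else 10 microM), half-log dilutions; growth expressed as percent test/control.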

[1] = curve of first compound, second compound 0.1 µM
[2] = curve of first compound, second compound 0.316 µM
[3] = curve of first compound, second compound 1 µM
[4] = curve of first compound, second compound 3.16 µM
[5] = curve of first compound, second compound 10 µM
[6] = second compound 0.1 µM, first compound 0.0316 µM
[7] = second compound 0.1 µM, first compound 0.1 µM
[8] = second compound 0.1 µM, first compound 0.316 µM
[9] = second compound 0.1 µM, first compound 1 µM
[10] = second compound 0.1 µM, first compound 3.16 µM
[11] = second compound 0.1 µM, first compound 10 µM
[12] = second compound 0.316 µM, first compound 0.0316 µM
[13] = second compound 0.316 µM, first compound 0.1 µM
[14] = second compound 0.316 µM, first compound 0.316 µM
[15] = second compound 0.316 µM, first compound 1 µM
[16] = second compound 0.316 µM, first compound 3.16 µM
[17] = second compound 0.316 µM, first compound 10 µM
[18] = second compound 1 µM, first compound 0.0316 µM
[19] = second compound 1 µM, first compound 0.1 µM
[20] = second compound 1 µM, first compound 0.316 µM
[21] = second compound 1 µM, first compound 1 µM
[22] = second compound 1 µM, first compound 3.16 µM
[23] = second compound 1 µM, first compound 10 µM
[24] = second compound 3.16 µM, first compound 0.0316 µM
[25] = second compound 3.16 µM, first compound 0.1 µM
[26] = second compound 3.16 µM, first compound 0.316 µM
[27] = second compound 3.16 µM, first compound 1 µM
[28] = second compound 3.16 µM, first compound 3.16 µM
[29] = second compound 3.16 µM, first compound 10 µM
[30] = second compound 10 µM, first compound 0.0316 µM
[31] = second compound 10 µM, first compound 0.1 µM
[32] = second compound 10 µM, first compound 0.316 µM
[33] = second compound 10 µM, first compound 1 µM
[34] = second compound 10 µM, first compound 3.16 µM
[35] = second compound 10 µM, first compound 10 µM
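Further: spheroids exposed to agents for 7 days before readout.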
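Wherever viability, T/C is given: 100% = DMSO vehicle control wells.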

Row | SMILES | IC50 [1] | IC50 [2] | IC50 [3] | IC50 [4] | IC50 [5] | viability, T/C [6] | viability, T/C [7] | viability, T/C [8] | viability, T/C [9] | viability, T/C [10] | viability, T/C [11] | viability, T/C [12] | viability, T/C [13] | viability, T/C [14] | viability, T/C [15] | viability, T/C [16] | viability, T/C [17] | viability, T/C [18] | viability, T/C [19] | viability, T/C [20] | further results
1 | CCc1c2c(nc3ccc(O)cc13)-c1cc3c(c(=O)n1C2)COC(=O)[C@]3(O)CC |  |  |  |  |  |  |  |  |  |  |  |  |  |  |  |  |  |  |  |  | viability, T/C (compound 0.000949 µM): 105% and 85% and 104%; viability, T/C (compound 0.003 µM): 105% and 102% and 103%; viability, T/C (compound 0.00949 µM): 102% and 85.4% and 107%; viability, T/C (compound 0.03 µM): 83% and 70.5% and 95.8%; viability, T/C (compound 0.0949 µM): 77.1% and 65.4% and 83.9%; viability, T/C (compound 0.3 µM): 68.5% and 50.5% and 59.9%; IC50 (curve of compound): > 0.3 µM
2 | COc1ccc([C@@H](O)c2cc(-c3ncnc4cc(N5CCOCC5)ccc34)c(F)cc2Cl)nn1 + Cc1cncc(-c2nc(NCCc3c[nH]c4ccccc34)c3ncn(C(C)C)c3n2)c1 | 3.86 µM | 3.13 µM | 2.82 µM | 4.55 µM | > 10 µM | 95.3% | 98.9% | 90.3% | 98.1% | 52.9% | 36.1% | 94.2% | 94.6% | 88.4% | 82.8% | 49.4% | 29.4% | 99.5% | 95% | 93.2% | viability, T/C [21]: 84.7%; viability, T/C [22]: 46%; viability, T/C [23]: 35.5%; viability, T/C [24]: 112%; viability, T/C [25]: 118%; viability, T/C [26]: 102%; viability, T/C [27]: 87.5%; viability, T/C [28]: 53.8%; viability, T/C [29]: 39.4%; viability, T/C [30]: 114%; viability, T/C [31]: 119%; viability, T/C [32]: 102%; viability, T/C [33]: 99.3%; viability, T/C [34]: 65.5%; viability, T/C [35]: 59.5%
3 | O=C(c1cc(Cc2n[nH]c(=O)c3ccccc23)ccc1F)N1CCN(C(=O)C2CC2)CC1 + Cc1ccccc1N=Nc1ccc(NC(=O)c2ccnn2C)c(C)c1 | > 10 µM | > 10 µM | > 10 µM | > 10 µM | > 10 µM | 104% | 96.2% | 91.8% | 90% | 108% | 94.6% | 94.4% | 94.4% | 94.3% | 90.2% | 91.7% | 94.2% | 97% | 95.2% | 111% | viability, T/C [21]: 96.1%; viability, T/C [22]: 93.8%; viability, T/C [23]: 83.3%; viability, T/C [24]: 97%; viability, T/C [25]: 87.5%; viability, T/C [26]: 91.4%; viability, T/C [27]: 90.6%; viability, T/C [28]: 101%; viability, T/C [29]: 99.3%; viability, T/C [30]: 92.4%; viability, T/C [31]: 110%; viability, T/C [32]: 106%; viability, T/C [33]: 96.8%; viability, T/C [34]: 92.7%; viability, T/C [35]: 85.4%
